# Results as given in article PMC8805119, “Spatial Distribution and Stability of Cholinesterase Inhibitory Protoberberine Alkaloids from Papaver setiferum” (Journal of Natural Products, 2021).
# Where two headings read alike, the source gives them in different places.
# Legend:
# [1] = molecular target: T1, electric eel acetylcholinesterase (eeAChE) (Electrophorus electricus, UniProt O42275); assay: Cholinesterase inhibition assay (Ellman method), eeAChE; assay type: biochemical; conditions: for Ki: inhibition constant, Dixon plot, substrate 0.125, 0.25, 0.5 mM
# T1 construct: purchased Sigma-Aldrich
# T1 sequence (O42275 24-633): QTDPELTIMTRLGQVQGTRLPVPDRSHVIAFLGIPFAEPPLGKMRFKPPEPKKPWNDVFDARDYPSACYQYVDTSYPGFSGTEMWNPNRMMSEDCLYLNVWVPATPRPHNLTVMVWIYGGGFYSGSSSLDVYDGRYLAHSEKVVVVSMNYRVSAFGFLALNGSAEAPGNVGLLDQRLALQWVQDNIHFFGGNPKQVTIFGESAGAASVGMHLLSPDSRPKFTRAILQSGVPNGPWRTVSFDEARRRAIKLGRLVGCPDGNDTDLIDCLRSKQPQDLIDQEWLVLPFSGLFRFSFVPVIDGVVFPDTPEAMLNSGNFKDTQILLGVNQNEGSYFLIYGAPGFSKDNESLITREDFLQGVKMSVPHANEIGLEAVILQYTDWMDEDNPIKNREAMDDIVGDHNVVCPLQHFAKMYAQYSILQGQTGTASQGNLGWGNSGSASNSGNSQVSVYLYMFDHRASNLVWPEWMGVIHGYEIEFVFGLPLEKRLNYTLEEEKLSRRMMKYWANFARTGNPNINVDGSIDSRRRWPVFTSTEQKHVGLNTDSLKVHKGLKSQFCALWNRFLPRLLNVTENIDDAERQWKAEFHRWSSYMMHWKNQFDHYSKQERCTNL
# Experimental: (§1) Cholinesterase activities were measured by the Ellman method[58] adapted for 96-well microtiter plates, as previously described.[59] The compounds were first screened for the IC50 determination, and for those with IC50 < 200 μM, the inhibitory constants (Ki) were determined. Stock solutions of the tested compounds (5 mg/mL) and of the positive control (1 mg/mL neostigmine bromide, Sigma-Aldrich, St. Louis, MO, USA) were prepared in 100% MeOH. These solutions were added to the wells and gradually diluted in 100 mM potassium phosphate buffer (pH 7.4) to the final volume of 50 μL. Acetylthiocholine chloride and 5,5′-dithiobis-2-nitrobenzoic acid were then dissolved in the same buffer to the respective final concentrations of 1 and 0.5 mM and added (100 μL) to the wells of the microtiter plates. eeAChE, hrAChE, or hsBChE (all Sigma-Aldrich) were dissolved in the same buffer to 0.0075 U/mL. A 50 μL amount of each of the cholinesterases was added to start the reactions, which were followed spectrophotometrically at 405 nm and 25 °C for 5 min using a kinetic microplate reader (Dynex Technologies Inc., Chantilly, VA, USA). Blank reactions without the inhibitors were run in the presence of the appropriate dilution of MeOH in 100 mM potassium phosphate buffer (pH 7.4). The concentrations of the compounds inducing 50% inhibition of enzyme activity (IC50) were determined and expressed as mean values ± SEM. To determine the inhibition constants (Ki), the kinetics were monitored using three different final substrate concentrations (0.125, 0.25, 0.5 mM). Each measurement was repeated at least three times. Data were analyzed using OriginPro software (OriginPro 2020, OriginLab Corporation, Northampton, MA, USA).
# [2] = Storage stability of isolated compounds (oxidation); assay type: physicochemical
# Experimental: These findings are of interest as they contrast with observations from the present work. In this study, no special precautions were taken in the isolation of 1 and 2, although the laboratory studies were conducted relatively quickly: only 9 days elapsed from the collection of fresh plants to the acquisition of NMR data (see Supporting Information, Figure S31 for a detailed isolation timeline). […] Comparison of the present methodology with the approaches used by Tsai and Lee[25] and Paulsen et al.[26] has led to the hypothesis that the use of a strong acid (0.1% TFA, pH ∼2.0) during HPLC may be an important component of compound stability. In the present investigation, 0.1% TFA was used in both solvents during HPLC purification, and the same was done by Tsai and Lee. Conversely, Paulsen et al. opted for a three-solvent system of 10 mM (NH4)2SO3, 0.2% triethylamine adjusted with acetic acid to pH 4.0 (solvent A), CH3CN (solvent B), and MeOH (solvent C). Their observation that 13,14-dihydrocoptisine oxidized repeatedly after HPLC leads to the present conclusion that these conditions may have been insufficiently acidic to stabilize the compound. However, this was not tested in the current work. Further, given the varied substitution of the aromatic motifs in these compounds, the role these groups play upon stability cannot be yet ascertained. […]
# [3] = molecular target: T2, human recombinant acetylcholinesterase (hrAChE) (Homo sapiens, UniProt P22303); assay: Cholinesterase inhibition assay (Ellman method), hrAChE; assay type: biochemical; conditions: for Ki: inhibition constant, Dixon plot, substrate 0.125, 0.25, 0.5 mM
# T2 construct: purchased Sigma-Aldrich
# T2 sequence (P22303 32-614): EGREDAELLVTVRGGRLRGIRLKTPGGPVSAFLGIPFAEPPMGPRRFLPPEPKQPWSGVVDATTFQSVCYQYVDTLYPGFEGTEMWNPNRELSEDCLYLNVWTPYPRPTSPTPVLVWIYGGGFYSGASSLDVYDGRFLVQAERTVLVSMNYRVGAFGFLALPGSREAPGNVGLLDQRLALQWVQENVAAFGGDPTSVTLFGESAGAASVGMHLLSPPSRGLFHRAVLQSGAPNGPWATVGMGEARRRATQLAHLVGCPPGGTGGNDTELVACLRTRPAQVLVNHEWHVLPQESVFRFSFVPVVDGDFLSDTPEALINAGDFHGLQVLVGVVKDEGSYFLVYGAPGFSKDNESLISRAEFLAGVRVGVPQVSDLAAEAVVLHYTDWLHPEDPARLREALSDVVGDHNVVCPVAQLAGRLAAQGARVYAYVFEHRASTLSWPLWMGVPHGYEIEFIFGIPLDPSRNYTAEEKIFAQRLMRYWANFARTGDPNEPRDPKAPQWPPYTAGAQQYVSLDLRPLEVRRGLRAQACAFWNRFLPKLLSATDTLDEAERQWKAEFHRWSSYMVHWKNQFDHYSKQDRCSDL
# Experimental: as §1
# [4] = molecular target: T3, horse serum butyrylcholinesterase (hsBChE) (Equus caballus, UniProt P81908); assay: biochemical; assay type: biochemical; conditions: for Ki: inhibition constant, Dixon plot, substrate 0.125, 0.25, 0.5 mM; for IC50: means ± SEM of three independent measurements; for selectivity for BChE: hsBChE versus AChEs
# T3 construct: purchased Sigma-Aldrich; host or cells: horse serum
# T3 sequence (P81908 whole entry): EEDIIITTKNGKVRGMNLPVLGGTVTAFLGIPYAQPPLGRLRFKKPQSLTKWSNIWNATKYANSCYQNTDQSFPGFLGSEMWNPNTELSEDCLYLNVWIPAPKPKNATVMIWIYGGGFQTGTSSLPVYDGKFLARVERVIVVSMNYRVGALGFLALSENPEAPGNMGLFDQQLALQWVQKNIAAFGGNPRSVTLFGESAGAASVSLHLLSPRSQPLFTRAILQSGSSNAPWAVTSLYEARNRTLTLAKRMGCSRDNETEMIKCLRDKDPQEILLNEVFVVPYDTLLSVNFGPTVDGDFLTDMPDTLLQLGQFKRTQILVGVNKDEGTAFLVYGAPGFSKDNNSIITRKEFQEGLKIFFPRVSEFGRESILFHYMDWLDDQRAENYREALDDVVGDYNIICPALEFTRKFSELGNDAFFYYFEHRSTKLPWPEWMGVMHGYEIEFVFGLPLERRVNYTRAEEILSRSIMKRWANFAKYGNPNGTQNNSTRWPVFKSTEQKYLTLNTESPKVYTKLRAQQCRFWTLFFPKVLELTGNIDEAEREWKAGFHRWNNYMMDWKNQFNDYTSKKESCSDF
# Experimental: as §1
# [5] = Protoberberine oxidation analysis in P. setiferum capsules (oven 40 °C vs freezer -20 °C, LC-MS); assay type: physicochemical, Papaver setiferum; conditions: 2 weeks
# Experimental: The alkaloid analysis was based on De Vos et al. (2007).[57]P. setiferum material was collected at four time points: (1) approximately 3 days before flowering, (2) during flowering, (3) approximately 2 weeks after flowering, and (4) approximately 4 weeks after flowering (by which point the flowers had dried and turned brown). At each collection time, a sample of the aerial parts (three separate stems, each with several leaves and a capsule) was collected and stored at −20 °C. The samples were later separated into capsules, leaves, and stems and ground into a powder using a mortar and pestle. One hundred milligrams (±5 mg) of each was transferred into an Eppendorf tube, and each weight was recorded. Cold MeOH (0.1% FA) was added to each in a 1:10 w/v ratio, and the tubes were sonicated for 30 min. The samples were centrifuged for 5 min at 13 000 rpm, and the supernatant was filtered (0.2 μm). A pooled sample was prepared by taking 20 μL from each sample and combining into a single vial. All samples were diluted 1:10 in Milli-Q water prior to LC-MS analysis. The samples were randomly ordered for LC-MS, with the pooled sample run interspaced after every fourth sample. An injection volume of 2 μL was used for each sample. The solvents used were 5% CH3CN (0.1% FA) (solvent A) and 95% CH3CN (0.1% FA) (solvent B). The column used was a Phenomenex Kinetex XB-C18 (2.6 μm, 100 Å, 3.0 × 100 mm) with a linear solvent gradient from 15% to 50% solvent B over 20 min. Alkaloids were identified by comparison of retention times with authentic standards.
# From three P. setiferum capsules [taken from time point (1) in the time series analysis], two lots of 100 ± 5 mg of material were weighed into Eppendorf tubes. One set of samples was stored with the lids open in the oven at 40 °C, while the others were stored in the freezer at −20 °C. After 2 weeks, the samples were analyzed by LC-MS, as described above.
# [6] = C. majus material; cited from earlier work
# [7] = means ± SEM of three independent measurements, read-out: eeAChE IC50
# [8] = means ± SEM of three independent measurements, read-out: hrAChE IC50
# [9] = AChEs (eeAChE and hrAChE), compared to 2
Compound,Ki [1] [µM],"IC50 [1, 7] [µM]",Ki [3] [µM],"IC50 [3, 8] [µM]",Ki [4] [µM],IC50 [4] [µM],change of concentration in oven-dried capsules versus capsules stored at -20 °C [5],also measured
"COc1cc2c(c3c1OCOC3)C[C@H]1c3c(cc4c(c3OC)OCO4)CCN1C2 [Compound 4, orientalidine]",2,5 ± 1,13.7,19.9 ± 1.1,35.5,104 ± 4,,"oxidation on standing in an NMR tube ([2]; 1:1 mixture of 4 and 5 (fraction C.12), four months): complete oxidation of 4 to 5"
"COc1cc2c(cc1O)[C@H](Cc1ccc(OC)c(OC)c1)[N+](C)(C)CC2 [Compound 9, N-methylcodamine]",,> 342,,> 342,,221 ± 1,,
"COC1=C[C@]23CCN(C)[C@H](Cc4ccc(OC)c(O)c42)C3=CC1=O [Compound 10, salutaridine]",,,,,,,,IC50 [1]: > 342 µM; IC50 [3]: > 342 µM
"COc1cc2c3c(c1O)-c1c(cccc1OC)C[C@@H]3N(C)CC2 [Compound 6, isothebaine]",68,260 ± 1,,,0.6,2.8 ± 3,,IC50 [3]: > 342 µM; selectivity for BChE [4]: good selectivity for BChE
"COc1cc2c[n+]3c(cc2c(CO)c1OC)-c1c(cc2c(c1OC)OCO2)CC3 [Compound 3, alborine]",3.6,6.8 ± 4.5,13.2,20 ± 0.9,43.7,63.1 ± 0.5,approximately doubling,
"COc1cc2c3c(c1O)-c1c(cccc1OC)C[C@@H]3[N+](C)(C)CC2 [Compound 7, N-methylisothebainium]",,> 342,,> 342,2.2,7.1 ± 2.7,,selectivity for BChE [4]: good selectivity for BChE
"C1=[N+]2CCc3cc4c(cc3C2Cc2ccc3c(c21)OCO3)OCO4 (stereo not shown) [13,14-dihydrocoptisine]",,,,,,,,oxidation after oven-drying of plant material [6]: complete oxidation
"O=[N+]([O-])CCc1ccc(O[C@@H]2O[C@H](CO[C@@H]3OC[C@@H](O)[C@H](O)[C@H]3O)[C@@H](O)[C@H](O)[C@H]2O)cc1 [Compound 11, thalictricoside]",,> 342,,> 342,,> 342,,
"COc1cc(C[C@H]2c3cc(O)c(OC)cc3CC[N+]2(C)C)ccc1O [Compound 8, N-methylorientaline]",,> 342,,> 342,,342 ± 3,,
"COc1cc2c(c(CO)c1OC)C[C@H]1c3c(cc4c(c3OC)OCO4)CC[N+]1=C2.O=C([O-])C(F)(F)F [Compound 1, 7,8-Didehydromecambridine TFA salt]",7,10.3 ± 1.1,31,66.6 ± 2.4,58.5,100 ± 5,minor decrease in concentration,"lower activity against AChEs when compared to 2 [1, 9]: approximately 3 fold; lower inhibition constants when compared to 2 [1, 9]: ~6 fold; oxidation of dried sample on storage ([2]; TFA salt, 0.7 mg, uncapped glass vial, room temperature, approximately 8 weeks): no oxidation to 3"
"COc1cc2c[n+]3c(cc2c2c1OCOC2)-c1c(cc2c(c1OC)OCO2)CC3 [Compound 5, 7,8,13,14-dehydroorientalidine]",,,,,,,below the level of detection,
"COc1cc2c(c3c1OCOC3)C[C@H]1c3c(cc4c(c3OC)OCO4)CC[N+]1=C2.O=C([O-])C(F)(F)F [Compound 2, 7,8-Didehydroorientalidine TFA salt]",1,3.4 ± 4.7,6.3,18.9 ± 1.8,47,98.5 ± 0.6,minor decrease in concentration,
